Earlier results as cited in patent US7251609B1, “Method for conducting clinical trials over the internet” (The Trustees of Boston University, priority 1999, dated 2007).

System: patients with knee OA

Cl.N[C@H]1C(O)O[C@H](CO)[C@@H](O)[C@@H]1O (stereo partly drawn) [glucosamine hydrochloride]
major adverse events (94 patients with knee OA): No major adverse events | rate of minor adverse symptoms (94 patients with knee OA, identical rate in glucosamine and placebo groups): 12% | efficacy (study of Houpt et al, knee OA): only modest efficacy
